How the values were obtained:
germs = assay: Disinfection and sterilization process on various objects, number of germs after treatment; settings: 55° C., 20 mbar; for Number of germs/m^3 after disinfection: 1.5 g/m^3 PES, 15 min; for Number of germs/m^3 after sterilization: 4 g/m^3 PES, 30 min
Experimental: Various objects were treated with the method according to the invention in order to disinfect and sterilize them.
The following process parameters were used in the disinfection process:
The following process parameters were used in the sterilization process: […]

[1] = tested on: spores of the bacterium Geobacillus stearothermophilis; assay: Validation tests for disinfection of laboratory utensils dripped with spore suspension SAL 10^6; format: cell-based, Geobacillus stearothermophilus; settings: for Biological result #not sterile/#tested: PES in solution 4%
[2] = tested on: human patellar tendon allografts; settings: in vitro study; cited from earlier work
[3] = tested on: spores of the bacterium Geobacillus stearothermophilis; assay: Validation tests for disinfection of spore strips SAL 10^5; format: cell-based, Geobacillus stearothermophilus; settings: for Biological result #not sterile/#tested: 50-55° C.
[4] = object: Mobile electronic display device

CC(=O)OO [PES, peracetic acid]
Number of germs/m^3 after disinfection (germs; object: FFP mask): 1220 germs/m^3 | Number of germs/m^3 after sterilization (germs; object: FFP mask): germ-free | Number of germs/m^3 after disinfection (germs; object: Infusomat): 1160 germs/m^3 | Number of germs/m^3 after sterilization (germs; object: Infusomat): germ-free | Number of germs/m^3 after disinfection (germs; object: MNS): 870 germs/m^3 | Number of germs/m^3 after sterilization (germs; object: MNS): germ-free | Number of germs/m^3 after disinfection (germs; [4]): 430 germs/m^3 | Number of germs/m^3 after sterilization (germs; [4]): germ-free | Number of germs/m^3 after disinfection (germs; object: Surgical clogs): 1370 germs/m^3 | Number of germs/m^3 after sterilization (germs; object: Surgical clogs): germ-free | Number of germs/m^3 after disinfection (germs; object: blower filter unit): 1740 germs/m^3 | Number of germs/m^3 after sterilization (germs; object: blower filter unit): germ-free | Number of germs/m^3 after disinfection (germs; object: disposable gloves): 920 germs/m^3 | Number of germs/m^3 after sterilization (germs; object: disposable gloves): germ-free | Number of germs/m^3 after disinfection (germs; object: protective overalls): 270 germs/m^3 | Number of germs/m^3 after sterilization (germs; object: protective overalls): germ-free | Number of germs/m^3 after disinfection (germs; object: visor): 360 germs/m^3 | Number of germs/m^3 after sterilization (germs; object: visor): germ-free | Biological result #not sterile/#tested ([1]; test 5, 1.9 g/m^3 PES in process chamber, 120 min, growth after seven days): 0/4 | Biological result #not sterile/#tested ([1]; test 7, 1.9 g/m^3 PES in process chamber, 60 min, growth after seven days): 0/4 | Biological result #not sterile/#tested ([1]; test 8, 1.9 g/m^3 PES in process chamber, 45 min, growth after seven days): 0/4 | Biological result #not sterile/#tested ([1]; test 12, 1.9 g/m^3 PES in process chamber, 15 min, growth after seven days): 0/4 | Biological result #not sterile/#tested ([1]; test 13, 1.9 g/m^3 PES in process chamber, 10 min, growth after seven days): 0/4 | Biological result #not sterile/#tested ([1]; test 14, 1.9 g/m^3 PES in process chamber, 5 min, growth after seven days): 0/4 | Biological result #not sterile/#tested ([1]; test 15, 1.7 g/m^3 PES in process chamber, 20 min, growth after seven days): 0/4 | Biological result #not sterile/#tested ([1]; test 16, 1.7 g/m^3 PES in process chamber, 15 min, growth after seven days): 0/4 | Biological result #not sterile/#tested ([1]; test 19, 1.3 g/m^3 PES in process chamber, 20 min, growth after seven days): 0/4 | Biological result #not sterile/#tested ([1]; test 20, 1.3 g/m^3 PES in process chamber, 15 min, growth after seven days): 0/4 | Biological result #not sterile/#tested ([1]; test 21, 0.94 g/m^3 PES in process chamber, 60 min, growth after seven days): 0/4 | Biological result #not sterile/#tested ([1]; test 22, 0.94 g/m^3 PES in process chamber, 40 min, growth after seven days): 0/4 | Biological result #not sterile/#tested ([1]; test 23, 0.94 g/m^3 PES in process chamber, 30 min, not sterile: pipette): (pipette) 1/8 | Biological result #not sterile/#tested ([1]; test 24, 0.94 g/m^3 PES in process chamber, 20 min, growth after seven days): 0/8 | Biological result #not sterile/#tested ([1]; test 25, 0.94 g/m^3 PES in process chamber, 15 min, not sterile: pipette): (pipette) 1/4 | Biological result #not sterile/#tested ([1]; test 26, 0.94 g/m^3 PES in process chamber, 10 min, growth after seven days): 0/4 | Biological result #not sterile/#tested ([1]; test 27, 0.94 g/m^3 PES in process chamber, 5 min, not sterile: pipette): (pipette) 1/4 | Biological result #not sterile/#tested ([1]; test 28, 0.47 g/m^3 PES in process chamber, 60 min, growth after seven days): 0/4 | Biological result #not sterile/#tested ([1]; test 29, 0.47 g/m^3 PES in process chamber, 30 min, growth after seven days): 0/4 | Biological result #not sterile/#tested ([1]; test 30, 0.47 g/m^3 PES in process chamber, 15 min, not sterile: Eppi): (Eppi) 1/4 | Biological result #not sterile/#tested ([1]; test 31, 0.47 g/m^3 PES in process chamber, 10 min, not sterile: pipette): (pipette) 1/4 | Biological result #not sterile/#tested ([1]; test 32, 0.47 g/m^3 PES in process chamber, 5 min, not sterile: mask, pipette): (mask, pipette) 2/4 | growth of the spores after seven days in nutrient solution ([1]; various experiments, relatively low PES concentration in the process chamber, short process duration): spore growth was observed after seven days | cytotoxic or pro-inflammatory effect [2]: no cytotoxic or pro-inflammatory effect | subsequent growth or multiplication of the spores ([3]; all the spore strips tested at different PES concentrations and different process times): No subsequent growth or multiplication of the spores could be detected | Biological result #not sterile/#tested ([3]; test 1, PES in solution 6%, 3 g/m^3 PES in process chamber, 240 min): 0/2 | Biological result #not sterile/#tested ([3]; test 2, PES in solution 6%, 3 g/m^3 PES in process chamber, 120 min): 0/1 | Biological result #not sterile/#tested ([3]; test 3, PES in solution 6%, 1.7 g/m^3 PES in process chamber, 150 min): 0/2 | Biological result #not sterile/#tested ([3]; test 4, PES in solution 4%, 2 g/m^3 PES in process chamber, 120 min): 0/1 | Biological result #not sterile/#tested ([3]; test 5, PES in solution 4%, 1.9 g/m^3 PES in process chamber, 120 min): 0/2 | Biological result #not sterile/#tested ([3]; test 6, PES in solution 4%, 1.9 g/m^3 PES in process chamber, 90 min): 0/2 | Biological result #not sterile/#tested ([3]; test 7, PES in solution 4%, 1.9 g/m^3 PES in process chamber, 60 min): 0/4 | Biological result #not sterile/#tested ([3]; test 8, PES in solution 4%, 1.9 g/m^3 PES in process chamber, 45 min): 0/1 | Biological result #not sterile/#tested ([3]; test 9, PES in solution 4%, 1.9 g/m^3 PES in process chamber, 40 min): 0/2 | Biological result #not sterile/#tested ([3]; test 10, PES in solution 4%, 1.9 g/m^3 PES in process chamber, 30 min): 0/2 | Biological result #not sterile/#tested ([3]; test 11, PES in solution 4%, 1.9 g/m^3 PES in process chamber, 20 min): 0/2 | Biological result #not sterile/#tested ([3]; test 12, PES in solution 4%, 1.9 g/m^3 PES in process chamber, 15 min): 0/1 | Biological result #not sterile/#tested ([3]; test 13, PES in solution 4%, 1.9 g/m^3 PES in process chamber, 10 min): 0/1 | Biological result #not sterile/#tested ([3]; test 14, PES in solution 4%, 1.9 g/m^3 PES in process chamber, 5 min): 0/1 | Biological result #not sterile/#tested ([3]; test 15, PES in solution 4%, 1.7 g/m^3 PES in process chamber, 20 min): 0/1 | Biological result #not sterile/#tested ([3]; test 16, PES in solution 4%, 1.7 g/m^3 PES in process chamber, 15 min): 0/1 | Biological result #not sterile/#tested ([3]; test 17, PES in solution 4%, 1.5 g/m^3 PES in process chamber, 240 min): 0/2 | Biological result #not sterile/#tested ([3]; test 18, PES in solution 4%, 1.5 g/m^3 PES in process chamber, 150 min): 0/2 | Biological result #not sterile/#tested ([3]; test 19, PES in solution 4%, 1.3 g/m^3 PES in process chamber, 20 min): 0/1 | Biological result #not sterile/#tested ([3]; test 20, PES in solution 4%, 1.3 g/m^3 PES in process chamber, 15 min): 0/1 | Biological result #not sterile/#tested ([3]; test 21, PES in solution 4%, 0.94 g/m^3 PES in process chamber, 60 min): 0/5 | Biological result #not sterile/#tested ([3]; test 22, PES in solution 4%, 0.94 g/m^3 PES in process chamber, 40 min): 0/1 | Biological result #not sterile/#tested ([3]; test 23, PES in solution 4%, 0.94 g/m^3 PES in process chamber, 30 min): 0/2 | Biological result #not sterile/#tested ([3]; test 24, PES in solution 4%, 0.94 g/m^3 PES in process chamber, 20 min): 0/2 | Biological result #not sterile/#tested ([3]; test 25, PES in solution 4%, 0.94 g/m^3 PES in process chamber, 15 min): 0/1 | Biological result #not sterile/#tested ([3]; test 26, PES in solution 4%, 0.94 g/m^3 PES in process chamber, 10 min): 0/1 | Biological result #not sterile/#tested ([3]; test 27, PES in solution 4%, 0.94 g/m^3 PES in process chamber, 5 min): 0/1 | Biological result #not sterile/#tested ([3]; test 28, PES in solution 4%, 0.47 g/m^3 PES in process chamber, 60 min): 0/1 | Biological result #not sterile/#tested ([3]; test 29, PES in solution 4%, 0.47 g/m^3 PES in process chamber, 30 min): 0/1 | Biological result #not sterile/#tested ([3]; test 30, PES in solution 4%, 0.47 g/m^3 PES in process chamber, 15 min): 0/1 | Biological result #not sterile/#tested ([3]; test 31, PES in solution 4%, 0.47 g/m^3 PES in process chamber, 10 min): 0/1 | Biological result #not sterile/#tested ([3]; test 32, PES in solution 4%, 0.47 g/m^3 PES in process chamber, 5 min): 0/1

— US20260115346A1, “METHOD AND DEVICE FOR DI[…]/OR S[…]” (SCHWING TECHNOLOGIES GMBH, priority 2022, published 2026)
